Test results published in patent publication US12623942B2, “Method for extracting salts and temperature- regenerated extracting composition” (ADIONICS, priority 2016, dated 2026).

Legend:
[1] = Complexing constant Log K in methanol at 25° C.; assay type: binding
Procedure: K is the complexing constant of a CEM and a […] cation in methanol, at 25° C., which is measured according to the standard method of isothermal calorimetric titration.

[2] = Liquid-liquid extraction of mono-salt saline solution; settings: 0.1M CEM + 3.52M ASM2 in CH2Cl2; initial salt 0.1 mol/L; Org./Water = 1; molar %
Source text: The extracting composition is obtained by solubilizing an amount of CEM and ASM in the selected fluidizing agent, dichloromethane CH2Cl2, dichlorobenzene or dichlorotoluene or any other fluidizing agent able to well solubilize the mixture CEM/ASM in order to obtain the searched final concentrations after solubilizing CEMs and ASMs in a minimum of 3 milliliters of fluidizing agent. If the selected fluidizing agent is also an ASM compound, so the selected ASM volume is at least 3 milliliters. The given concentrations of ASM2 and ASM9 are related to the added fluidizing agent volume and the concentrations of CEM are related to the added fluidizing agent+ASM volume. The extracting organic composition is then lightly heated so as to promote the solubilization of the organic compounds by means of a heat gun (temperature around 50 to 60° C.) for a few seconds (10 to 30 seconds) until a clear solution is obtained. The composition is thus left for 24 hours at room temperature so as to make sure that the obtained formulation is stable.
These sealed formulations are then orbitally stirred at 500 revolutions/minute for two hours after adding an equivalent volume of water which was distilled twice so as to allow a water saturation of the whole formulation and a pH control at the inlet and at the outlet (pH close to 7, or at least maintained after contact with the saturation water).
3 mL of the prepared extracting organic composition are then taken from the lower phase of the decanted diphasic mixture and transferred to a vial containing 3 mL of the water containing the one or more considered chloride salts (NaCl or others), then the vial is sealed and orbitally stirred (at 500 revolutions per minute) for 2 hours at room temperature (RT), that is to say between 20 and 25° C.
A verification is made to make sure that droplets in the range of 1-2 mm are really present during these stirrings in order to be sure that an equilibrium in the distribution of the considered chloride salt (NaCl or other) is achieved between both liquid phases at the end of stirring. The aspect of the organic and aqueous phases is clear and colorless or slightly turbid.
Once the 2-hour stirring is carried out, the stirring is stopped and the whole is left for decantation for about 10 minutes, at least until both phases are completely separated, at the temperature of the assay. Then, the upper aqueous phase is taken then stirred and diluted in order to analyze its salinity by a ion chromatography (a Metrohm™ device including a cation analyzing column and an anion analyzing column suitable for the ions and for the concentration of the salts which are searched for). Likewise, the chloride salt (NaCl or other) initial aqueous solution is also analyzed by this ion chromatography to determine its cation and chloride molar relative concentration before the extraction. All the extractions and analyses were duplicated.
The considered extracting composition comprises 0.1 mol/L of CEM1 and 3.52 mol/L of ASM2 in dichloromethane CH2Cl2, which was obtained as described above. The initial concentration of the considered salt in water, whether it is LiCl, NaCl, KCl, MgCl2, CaCl2, SrCl2 or BaCl2, is 0.1 mol/L.
After carrying out these 7 specific extractions (duplicated) of salts, the amounts of extracted cations in relative molar percentage before and after extraction at room temperature and at water/extracting formulation iso-volume are indicated in table I: […]

[3] = Extraction of salts from a brine, four extraction steps; settings: 0.4M CEM1 + 1.2M ASM9 in 12ClPh; for Salinity progression at RT, Ca / Salinity progression at RT, Cl / Salinity progression at RT, K / Salinity progression at RT, Mg / Salinity progression at RT, Na: Org./Water 3, brine 180 g/Liter
Source text: (§1) The extracting composition is as follows: 0.4 Mol/L of CEM1 (cf example 1, of CAS #: 114155-16-7), completed with 1.2 Mol/L of ASM9 of formula: […]
(§2) The brine is a water having a high salinity, at 180 g/Liter (that is to say 5.6 Mol/L), composed of sodium, potassium, calcium, magnesium and chloride ions in the proportions of table II below. The saline water to be treated was contacted with a triple relative volume of this extracting composition in order to get close to the operating conditions.
(§3) It is shown in table II below the concentrations, in mMol/L of water, of each of the ions before and after each of the four extraction steps, carried out at room temperature (RT).

[4] = Extraction of salts from a brine, four extraction steps, total salinity; settings: 0.4M CEM1 + 1.2M ASM9 in 12ClPh; for Salinity progression at RT, Total: Org./Water 3, brine 180 g/Liter
Source text: as §1, §2, §3

[5] = Selective extraction from a binary mixture NaCl/CaCl2; settings: 0.1 mol/L CEM + 2.4 mol/L ASM9 in 1,2-dichlorobenzene; brine 0.05 mol/L NaCl and CaCl2 each; RT; molar %
Source text: A brine containing an equimolar mixture of salts, 0.05 mol/L of NaCl and CaCl2 each, which was made as described above, was contacted with two extracting compositions, one of which according to the invention.
Each extracting composition comprises 0.1 mol/L of CEM
[drawing 53] and 2.4 mol/L of ASM9 in 1,2-dichlorobenzene.
A brine containing a mixture of NaCl and CaCl2 is made as described above to obtain the following initial saline concentrations in a mixture: 0.2 Mol/L of NaCl and 0.03 Mol/L of CaCl2. The extracting resin, is composed of 0.1 Mol/L of CEM2, 3.52 Mol/L of ASM2 and a complement of liquid ASM1, which is also used as a fluidizing agent.

[6] = after Extract 4, expressed in g/Liter

**Q.** Which “Log K(Ba^++, MeOH, 25° C.)” value [1] does the source give for CCN(CC)C(=O)COc1c2cc(C(C)(C)C)cc1Cc1cc(C(C)(C)C)cc(c1OCC(=O)N(CC)CC)Cc1cc(C(C)(C)C)cc(c1OCC(=O)N(CC)CC)Cc1cc(C(C)(C)C)cc(c1OCC(=O)N(CC)CC)C2 [CEM1, 4-tert-butyl-Calix[4]arene tetrakis(N,N-diethylacetamide)] here?
**A.** Its value is 7.2.

**Q.** And the “Log K(Ca^++, MeOH, 25° C.)” value [1]?
**A.** Its value is greater than 9.0.

**Q.** And the “Log K(Cs^+, MeOH, 25° C.)” value [1]?
**A.** Its value is 2.5.

**Q.** What about the “Log K(K^+, MeOH, 25° C.)” value [1] of the same compound?
**A.** The value was 5.8.

**Q.** And the “Log K(Li^+, MeOH, 25° C.)” value [1]?
**A.** The value was 4.0.

**Q.** What about the “Log K(Mg^++, MeOH, 25° C.)” value [1] of the same compound?
**A.** The value was less than 1.2.

**Q.** What about the “Log K(Na^+, MeOH, 25° C.)” value [1] of the same compound?
**A.** The value was 7.9.

**Q.** And the “Log K(Rb^+, MeOH, 25° C.)” value [1]?
**A.** Its value is 3.8.

**Q.** What about the “Log K(Sr^++, MeOH, 25° C.)” value [1] of the same compound?
**A.** The value was greater than 9.0.

**Q.** And the “Extraction rate at room temperature (RT), BaCl2” value [2]?
**A.** The value was 46.1%.

**Q.** And the “Extraction rate at room temperature (RT), CaCl2” value [2]?
**A.** The value was 59.4%.

**Q.** And the “Extraction rate at room temperature (RT), KCl” value [2]?
**A.** Its value is 75.8%.

**Q.** And the “Extraction rate at room temperature (RT), LiCl” value [2]?
**A.** The value was 73.7%.

**Q.** What about the “Extraction rate at room temperature (RT), MgCl2” value [2] of the same compound?
**A.** Its value is 5.4%.

**Q.** What about the “Extraction rate at room temperature (RT), NaCl” value [2] of the same compound?
**A.** The value was 85.8%.

**Q.** What about the “Extraction rate at room temperature (RT), SrCl2” value [2] of the same compound?
**A.** The value was 64.0%.

**Q.** What about the “Salinity progression at RT, Ca” value ([3]; after Extract 1) of the same compound?
**A.** The value was 495 mmol/L.

**Q.** And the “Salinity progression at RT, Cl” value ([3]; after Extract 1)?
**A.** Its value is 2703 mmol/L.

**Q.** And the “Salinity progression at RT, K” value ([3]; after Extract 1)?
**A.** The value was 22.5 mmol/L.

**Q.** And the “Salinity progression at RT, Mg” value ([3]; after Extract 1)?
**A.** Its value is 83.4 mmol/L.

**Q.** And the “Salinity progression at RT, Na” value ([3]; after Extract 1)?
**A.** The value was 1162 mmol/L.

**Q.** And the “Salinity progression at RT, Ca” value ([3]; after Extract 2)?
**A.** Its value is 492 mmol/L.

**Q.** And the “Salinity progression at RT, Cl” value ([3]; after Extract 2)?
**A.** The value was 2292 mmol/L.

**Q.** What about the “Salinity progression at RT, K” value ([3]; after Extract 2) of the same compound?
**A.** Its value is 23.4 mmol/L.

**Q.** What about the “Salinity progression at RT, Mg” value ([3]; after Extract 2) of the same compound?
**A.** The value was 86.4 mmol/L.

**Q.** And the “Salinity progression at RT, Na” value ([3]; after Extract 2)?
**A.** The value was 429 mmol/L.

**Q.** And the “Salinity progression at RT, Ca” value ([3]; after Extract 3)?
**A.** Its value is 360 mmol/L.

**Q.** What about the “Salinity progression at RT, Cl” value ([3]; after Extract 3) of the same compound?
**A.** The value was 1083 mmol/L.

**Q.** What about the “Salinity progression at RT, K” value ([3]; after Extract 3) of the same compound?
**A.** Its value is 13.9 mmol/L.

**Q.** What about the “Salinity progression at RT, Mg” value ([3]; after Extract 3) of the same compound?
**A.** Its value is 87.6 mmol/L.

**Q.** And the “Salinity progression at RT, Na” value ([3]; after Extract 3)?
**A.** The value was 8.54 mmol/L.

**Q.** What about the “Salinity progression at RT, Ca” value ([3]; after Extract 4) of the same compound?
**A.** Its value is 114 mmol/L.

**Q.** What about the “Salinity progression at RT, Cl” value ([3]; after Extract 4) of the same compound?
**A.** Its value is 469 mmol/L.

**Q.** What about the “Salinity progression at RT, K” value ([3]; after Extract 4) of the same compound?
**A.** Its value is 3.65 mmol/L.

**Q.** What about the “Salinity progression at RT, Mg” value ([3]; after Extract 4) of the same compound?
**A.** The value was 94.2 mmol/L.

**Q.** And the “Salinity progression at RT, Na” value ([3]; after Extract 4)?
**A.** The value was 3.70 mmol/L.

**Q.** What about the “Equivalent4, Ca” value [3, 6] of the same compound?
**A.** The value was 4.57 g/L.

**Q.** And the “Equivalent4, Cl” value [3, 6]?
**A.** Its value is 16.62 g/L.

**Q.** What about the “Equivalent4, K” value [3, 6] of the same compound?
**A.** The value was 0.14 g/L.

**Q.** What about the “Equivalent4, Mg” value [3, 6] of the same compound?
**A.** Its value is 2.29 g/L.

**Q.** What about the “Equivalent4, Na” value [3, 6] of the same compound?
**A.** Its value is 0.09 g/L.

**Q.** And the “Salinity progression at RT, Total” value ([4]; after Extract 1)?
**A.** Its value is 4466 mmol/L.

**Q.** And the “Salinity progression at RT, Total” value ([4]; after Extract 2)?
**A.** Its value is 3322 mmol/L.

**Q.** What about the “Salinity progression at RT, Total” value ([4]; after Extract 3) of the same compound?
**A.** The value was 1553 mmol/L.

**Q.** What about the “Salinity progression at RT, Total” value ([4]; after Extract 4) of the same compound?
**A.** Its value is 685 mmol/L.

**Q.** What about the “Equivalent4, Total” value [4, 6] of the same compound?
**A.** The value was 23.70 g/L.

**Q.** What about the “% E Ca^++” value [5] of the same compound?
**A.** The value was 10.0%.

**Q.** What about the “% E Na^+” value [5] of the same compound?
**A.** The value was 88.0%.
